In brackets after ≈: the same amount, converted by molar mass.
Experiments:
HBV [1] = assay: Anti-HBV activity in vitro in HepG2.2.15 cells (extracellular HBV DNA by qPCR); type: cell-based, Hepatitis B virus; conditions: Hepatitis B virus; HepG2.2.15 cells; in-house data; read-out: EC50
Method in brief: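 HepG2.2.15 cells, which constitutively produce HBV, were seeded overnight and then treated for 5 days with half-log serially diluted compounds at 0.5% final DMSO. Extracellular HBV DNA in culture supernatant was extracted and quantified by qPCR.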

[2] = Cytotoxicity (CC50) in HepDE19 cells, CCK-8 cell viability; type: cell-based; conditions: human, HepDE19 cells; read-out: CC50
Method in brief: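 HBV-transfected HepG2-derived HepDE19 cells grown in DMEM-F12 with 10% FBS and G418. Viability read five days after treatment by CCK-8, 2 h at 37 °C, absorbance at 450 and 630 nm.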

HBV [3] = assay: Selectivity index (CC50 value/EC50 value); type: cell-based, Hepatitis B virus
Method in brief: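 Ratio of CC50 to EC50, measuring antiviral activity against HBV relative to cytotoxicity in vitro; higher values indicate greater separation between viral inhibition and cell death.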

[4] = Metabolic stability study in human microsome; type: in vitro ADME
Method in brief: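 Human liver microsomes (0.5 mg/mL) with 1 μM compound in 100 mM phosphate pH 7.4 at 37 °C, started with 1 mM NADPH or an NADPH-regenerating system. Samples taken at 0, 3, 6, 9, 15 and 30 min, quenched in methanol. Parent remaining measured by LC-MS/MS; no-cofactor controls included.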

[5] = Lyophilisation solubility assay (Lysa); type: physicochemical; conditions: phosphate buffer, pH 6.5, aqueous buffer, thermodynamic from solid
Method in brief: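 Duplicate samples from 10 mM DMSO stocks are dried, redissolved in 0.05 M phosphate buffer pH 6.5, stirred 1 h, shaken 2 h and left overnight. Filtrate and its 1/10 dilution are quantified by direct UV or HPLC-UV, giving solubility in μg/mL.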

CCOC(=O)C1=C(CN2CCOC[C@H]2C(=O)O)NC(c2nccn2C)=N[C@H]1c1cccc(F)c1Cl [Example 97, (S)-4-[(R)-6-(2-Chloro-3-fluoro-phenyl)-5-ethoxycarbonyl-2-(1-methyl-1H-imidazol-2-yl)-3,6-dihydro-pyrimidin-4-ylmethyl]-morpholine-3-carboxylic acid]
EC50 (HBV [1]): 5 nM
CC50 at 5 days [2]: 44 µM
Selectivity index (CC50/EC50) (HBV [3]): 8800
Human Hepatic Clearance [4]: 1.63 mL/min/kg
solubility thermodynamic [5]: > 640 µg/mL

CC(C)OC(=O)C1=C(CN2CCOC[C@H]2C(=O)O)NC(c2nccs2)=N[C@H]1c1cccc(F)c1Cl [Example 101, (S)-4-[(R)-6-(2-Chloro-3-fluoro-phenyl)-5-isopropoxycarbonyl-2-thiazol-2-yl-3,6-dihydro-pyrimidin-4-ylmethyl]-morpholine-3-carboxylic acid]
EC50 (HBV [1]): 14 nM
CC50 at 5 days [2]: 91 µM
Selectivity index (CC50/EC50) (HBV [3]): 6741
Human Hepatic Clearance [4]: 4.18 mL/min/kg
solubility thermodynamic [5]: > 571 µg/mL

COC(=O)C1=C(CN2CC(F)(F)C[C@H]2C(=O)O)NC(c2ncoc2C)=N[C@H]1c1ccc(F)cc1Cl [Example 102, (R)-6-((5)-2-Carboxy-4,4-difluoro-pyrrolidin-1-ylmethyl)-4-(2-chloro-4-fluoro-phenyl)-2-(5-methyl-oxazol-4-yl)-1,4-dihydro-pyrimidine-5-carboxylic acid methyl ester]
EC50 (HBV [1]): 9 nM
CC50 at 5 days [2]: 23 µM
Selectivity index (CC50/EC50) (HBV [3]): 2599
Human Hepatic Clearance [4]: 0.97 mL/min/kg
solubility thermodynamic [5]: > 635 µg/mL

COC(=O)C1=C(CN2CCOC[C@H]2C(=O)O)NC(c2ncoc2C)=N[C@H]1c1cccc(F)c1Cl [Example 103, (S)-4-[(R)-6-(2-Chloro-3-fluoro-phenyl)-5-methoxycarbonyl-2-(5-methyl-oxazol-4-yl)-3,6-dihydro-pyrimidin-4-ylmethyl]-morpholine-3-carboxylic acid]
EC50 (HBV [1]): 15 nM
CC50 at 5 days [2]: > 100 µM
Selectivity index (CC50/EC50) (HBV [3]): >6803
Human Hepatic Clearance [4]: 2.81 mL/min/kg
solubility thermodynamic [5]: > 643 µg/mL

COC(=O)C1=C(CN2CCO[C@H](C)[C@H]2C(=O)O)NC(c2nccs2)=N[C@H]1c1ccc(F)cc1Br [Example 106, (2R,3S)-4-[(R)-6-(2-Bromo-4-fluoro-phenyl)-5-methoxycarbonyl-2-thiazol-2-yl-3,6-dihydro-pyrimidin-4-ylmethyl]-2-methyl-morpholine-3-carboxylic acid]
EC50 (HBV [1]): 2.1 nM
CC50 at 5 days [2]: > 100 µM
Selectivity index (CC50/EC50) (HBV [3]): >47619
Human Hepatic Clearance [4]: 6.32 mL/min/kg
solubility thermodynamic [5]: > 730 µg/mL

CCOC(=O)C1=C(CN2CC(F)(F)CC[C@H]2C(=O)O)NC(c2nccs2)=N[C@H]1c1ccc(F)cc1Br [Example 107, (R)-4-(2-Bromo-4-fluoro-phenyl)-6-((S)-2-carboxy-5,5-difluoro-piperidin-1-ylmethyl)-2-thiazol-2-yl-1,4-dihydro-pyrimidine-5-carboxylic acid ethyl ester]
EC50 (HBV [1]): 1.5 nM
CC50 at 5 days [2]: 24 µM
Selectivity index (CC50/EC50) (HBV [3]): 16000
Human Hepatic Clearance [4]: 1.89 mL/min/kg
solubility thermodynamic [5]: 510 µg/mL (≈ 868 µM)

CCOC(=O)C1=C(CN2CC(F)(F)CC[C@@H]2C(=O)O)NC(c2nccs2)=N[C@H]1c1ccc(F)cc1Br [Example 108, (R)-4-(2-Bromo-4-fluoro-phenyl)-6-((R)-2-carboxy-5,5-difluoro-piperidin-1-ylmethyl)-2-thiazol-2-yl-1,4-dihydro-pyrimidine-5-carboxylic acid ethyl ester]
EC50 (HBV [1]): 18 nM
CC50 at 5 days [2]: 33 µM
Selectivity index (CC50/EC50) (HBV [3]): 1784
Human Hepatic Clearance [4]: 4.88 mL/min/kg
solubility thermodynamic [5]: 410 µg/mL (≈ 698 µM)

COC(=O)C1=C(CN2CC(F)(F)CC[C@H]2C(=O)O)NC(c2nccs2)=N[C@H]1c1cccc(F)c1Cl [Example 109, (R)-6-((S)-2-Carboxy-5,5-difluoro-piperidin-1-ylmethyl)-4-(2-chloro-3-fluoro-phenyl)-2-thiazol-2-yl-1,4-dihydro-pyrimidine-5-carboxylic acid methyl ester]
EC50 (HBV [1]): 4.4 nM
CC50 at 5 days [2]: 55 µM
Selectivity index (CC50/EC50) (HBV [3]): 12500
Human Hepatic Clearance [4]: 1.25 mL/min/kg
solubility thermodynamic [5]: > 657 µg/mL

CCOC(=O)C1=C(CN2CC(F)(F)CC[C@H]2C(=O)O)NC(c2nccs2)=N[C@H]1c1ccccc1Cl [Example 111, (R)-6-((S)-2-Carboxy-5,5-difluoro-piperidin-1-ylmethyl)-4-(2-chloro-phenyl)-2-thiazol-2-yl-1,4-dihydro-pyrimidine-5-carboxylic acid ethyl ester]
EC50 (HBV [1]): 5.8 nM
CC50 at 5 days [2]: > 100 µM
Selectivity index (CC50/EC50) (HBV [3]): 17241
Human Hepatic Clearance [4]: 5.31 mL/min/kg
solubility thermodynamic [5]: > 620 µg/mL

COC(=O)C1=C(CN2CCO[C@H](C)[C@H]2C(=O)O)NC(c2nccs2)=N[C@H]1c1ccc(F)c(F)c1 [Example 113, (2R,3S)-4-[(S)-6-(3,4-Difluoro-phenyl)-5-methoxycarbonyl-2-thiazol-2-yl-3,6-dihydro-pyrimidin-4-ylmethyl]-2-methyl-morpholine-3-carboxylic acid]
EC50 (HBV [1]): 16 nM
CC50 at 5 days [2]: > 100 µM
Selectivity index (CC50/EC50) (HBV [3]): >6061
Human Hepatic Clearance [4]: 0 mL/min/kg
solubility thermodynamic [5]: > 615 µg/mL

COC(=O)C1=C(CN2CCO[C@H](C)[C@H]2C(=O)O)NC(c2nccs2)=N[C@H]1c1ccc(F)c(F)c1F [Example 114, (2R,3S)-4-[(R)-5-Methoxycarbonyl-2-thiazol-2-yl-6-(2,3,4-trifluoro-phenyl)-3,6-dihydro-pyrimidin-4-ylmethyl]-2-methyl-morpholine-3-carboxylic acid]
EC50 (HBV [1]): 9.3 nM
CC50 at 5 days [2]: > 100 µM
Selectivity index (CC50/EC50) (HBV [3]): >10753
Human Hepatic Clearance [4]: 0 mL/min/kg
solubility thermodynamic [5]: > 617 µg/mL

COC(=O)C1=C(CN2CCO[C@H](C)[C@H]2C(=O)O)NC(c2nccs2)=N[C@H]1c1cccc(F)c1Cl [Example 115, (2R,3S)-4-[(R)-6-(2-Chloro-3-fluoro-phenyl)-5-methoxycarbonyl-2-thiazol-2-yl-3,6-dihydro-pyrimidin-4-ylmethyl]-2-methyl-morpholine-3-carboxylic acid]
EC50 (HBV [1]): 2.3 nM
CC50 at 5 days [2]: > 100 µM
Selectivity index (CC50/EC50) (HBV [3]): >43478
Human Hepatic Clearance [4]: 1.55 mL/min/kg
solubility thermodynamic [5]: > 642 µg/mL

CCOC(=O)C1=C(CN2CCO[C@H](C)[C@H]2C(=O)O)NC(c2nccs2)=N[C@H]1c1ccccc1Cl [Example 117, (2R,3S)-4-[(R)-6-(2-Chloro-phenyl)-5-ethoxycarbonyl-2-thiazol-2-yl-3,6-dihydro-pyrimidin-4-ylmethyl]-2-methyl-morpholine-3-carboxylic acid]
EC50 (HBV [1]): 1.5 nM
CC50 at 5 days [2]: > 100 µM
Selectivity index (CC50/EC50) (HBV [3]): 66667
Human Hepatic Clearance [4]: 0 mL/min/kg
solubility thermodynamic [5]: > 628 µg/mL

CCOC(=O)C1=C(CN2CCO[C@H](C)[C@H]2C(=O)O)NC(c2nccs2)=N[C@H]1c1cccc(F)c1Cl [Example 118, (2R,3S)-4-[(R)-6-(2-Chloro-3-fluoro-phenyl)-5-ethoxycarbonyl-2-thiazol-2-yl-3,6-dihydro-pyrimidin-4-ylmethyl]-2-methyl-morpholine-3-carboxylic acid]
EC50 (HBV [1]): 0.5 nM
CC50 at 5 days [2]: > 100 µM
Selectivity index (CC50/EC50) (HBV [3]): >200000
Human Hepatic Clearance [4]: 0.1 mL/min/kg
solubility thermodynamic [5]: > 630 µg/mL
